Source: article PMC12367827, “Prioritisation of co-formulants and plant protection products for non-dietary risk assessment using NAMs” (Archives of Toxicology, 2025)

Assays:
[1] = target: T1, CYP1A2 (Homo sapiens, UniProt P05177); assay: P450-Glo luminescence turnover; assay type: biochemical; conditions: NADPH regeneration system; potassium phosphate buffer; […] °C; luminogenic substrate
T1 construct: recombinant human enzyme in membrane preparation (Promega P450-Glo CYP1A2 Screening System)
T1 sequence (P05177 2-516): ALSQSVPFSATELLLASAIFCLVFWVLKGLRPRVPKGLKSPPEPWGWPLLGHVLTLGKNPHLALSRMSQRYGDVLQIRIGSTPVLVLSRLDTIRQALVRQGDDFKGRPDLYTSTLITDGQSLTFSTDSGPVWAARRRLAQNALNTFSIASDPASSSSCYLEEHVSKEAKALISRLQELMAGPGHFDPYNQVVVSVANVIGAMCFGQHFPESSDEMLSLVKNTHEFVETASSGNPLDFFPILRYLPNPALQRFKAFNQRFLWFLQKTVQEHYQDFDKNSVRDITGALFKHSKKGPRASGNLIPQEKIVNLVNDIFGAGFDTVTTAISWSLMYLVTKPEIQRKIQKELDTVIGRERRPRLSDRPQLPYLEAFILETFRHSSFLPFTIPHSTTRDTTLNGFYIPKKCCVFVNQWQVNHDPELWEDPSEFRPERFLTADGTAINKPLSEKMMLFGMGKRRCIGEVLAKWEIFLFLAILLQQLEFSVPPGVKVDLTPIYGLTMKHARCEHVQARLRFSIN

[2] = target: CYP2C19 (Homo sapiens, UniProt P33261); assay: P450-Glo luminescence inhibition assay
CYP2C19, sequence (P33261 whole entry): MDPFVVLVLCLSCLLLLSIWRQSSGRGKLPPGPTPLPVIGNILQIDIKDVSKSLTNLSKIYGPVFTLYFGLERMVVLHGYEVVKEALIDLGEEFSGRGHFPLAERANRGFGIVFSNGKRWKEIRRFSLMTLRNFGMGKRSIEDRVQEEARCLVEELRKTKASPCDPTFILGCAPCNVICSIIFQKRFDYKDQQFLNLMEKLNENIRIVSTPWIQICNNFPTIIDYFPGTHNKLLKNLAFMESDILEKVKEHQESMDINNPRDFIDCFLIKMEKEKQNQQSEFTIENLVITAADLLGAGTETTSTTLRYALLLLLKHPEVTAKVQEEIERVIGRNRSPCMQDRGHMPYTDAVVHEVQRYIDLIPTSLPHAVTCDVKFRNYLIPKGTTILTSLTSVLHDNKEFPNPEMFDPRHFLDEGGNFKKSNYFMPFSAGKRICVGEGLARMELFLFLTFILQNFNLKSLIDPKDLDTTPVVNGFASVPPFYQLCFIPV

Row | SMILES | P450-Glo luminescence turnover [1] | IC50 [2] [µM]
1 | COc1ccc2nc(C3=NC(C(=O)O)CS3)sc2c1 (centres unmarked) [Luciferin-ME] | Luciferin-ME (CYP1A2) as luminogenic substrate | 
2 | CCCCCCCCCC(=O)N(C)C [NDA, N,N-dimethyldecanamide] |  | 4.05
